The record followed here is paper PMC11855827, “High-Throughput Screening of Five Compound Libraries for Anthelmintic Activity and Toxicity Leads to the Discovery of Two Flavonoid Compounds” (International Journal of Molecular Sciences, 2025).

Where two headings read alike, the source gives them in different places.

This experiment has as its system C. elegans. As to the kind of experiment: microbe, parasite or virus in culture. As to conditions: Caenorhabditis elegans.
Setting [1] is: 0 h, read-out: Percentage of motility inhibition 0 h, Table S2, C. elegans SS assay, 110 μM, 0 h, averages of 4 data points.
Where [2] appears, read: 24 h, read-out: Percentage of motility inhibition 24 h, Table S2, C. elegans SS assay, 110 μM, 24 h, averages of 4 data points.
[3] abbreviates: 0 h, read-out: Percentage of motility inhibition 0 h.
The mark [4] stands for this setting: 24 h, read-out: Percentage of motility inhibition 24 h.

The term inhibition denotes the change of the read-out against control, counted positive when it falls. `C[C@H]1O[C@@H](O[C@H]2[C@@H](O)C[C@H](O[C@H]3[C@@H](O)C[C@H](O[C@H]4CC[C@@]5(C)[C@H](CC[C@@H]6[C@@H]5CC[C@]5(C)[C@@H](C7=CC(=O)OC7)CC[C@]65O)C4)O[C@@H]3C)O[C@@H]2C)C[C@H](O)[C@@H]1O` [Digitoxin]: the inhibition at 110 µM is, setting by setting: under setting [1], 0%; under setting [2], 3%.

Take `COc1cc(CNC(=O)CCCCCCC(C)C)ccc1O` [Dihydrocapsaicin]: the inhibition at 110 µM runs as follows: under setting [1], 0%; under setting [2], 7%.

Take `COc1ccc2c(c1OC)CN(C)c1c-2ccc2cc3c(cc12)OCO3` [Dihydrochelerythrine]: the inhibition at 110 µM was 0% under setting [1] and 7% under setting [2].

Consider `O=C1c2c(O)cc(O)cc2O[C@H](c2ccc(O)cc2)[C@H]1O` [Dihydrokaempferol], for which the inhibition at 110 µM runs as follows: under setting [1], 2%; under setting [2], 0%.

With `O=C1c2c(O)cc(O)cc2O[C@H](c2cc(O)c(O)c(O)c2)[C@H]1O` [Dihydromyricetin], the inhibition at 110 µM amounted to 33% under setting [1] and 16% under setting [2].

Take `CN1Cc2c(ccc3c2OCO3)-c2ccc3cc4c(cc3c21)OCO4` [Dihydrosanguinarine]: the inhibition at 110 µM is, setting by setting: under setting [1], 0%; under setting [2], 0%.

Take `Oc1c(I)cc(I)c2cccnc12` [Diiodohydroxyquinoline]: the inhibition at 110 µM is, setting by setting: under setting [1], 38%; under setting [2], 40%.

As to `Cc1ncc([N+](=O)[O-])n1C` [Dimetridazole], the inhibition at 110 µM reads like this: under setting [1], 0%; under setting [2], 14%.

On to `Cc1c(C(N)=O)cc([N+](=O)[O-])cc1[N+](=O)[O-]` [Dinitolmide], for which the inhibition at 110 µM reads like this: under setting [1], 16%; under setting [2], 14%.

Turning to `CN/C(=N/CC1CCOC1)N[N+](=O)[O-]` (stereo not drawn) [Dinotefuran], the inhibition at 110 µM runs as follows: under setting [3], 7%; under setting [4], 0%.

With `COc1ccc(-c2cc(=O)c3c(O)cc(O)cc3o2)cc1O` [Diosmetin], the inhibition at 110 µM runs as follows: under setting [3], 13%; under setting [4], 0%.

Regarding `CC[C@H]1OC(=O)[C@H](C)[C@@H](O[C@H]2C[C@@](C)(OC)[C@@H](O)[C@H](C)O2)[C@H](C)[C@@H](O[C@@H]2O[C@H](C)C[C@H](N(C)C)[C@H]2O)[C@](C)(O)C[C@@H](C)[C@@H]2N[C@@H](COCCOC)O[C@H]([C@H]2C)[C@]1(C)O` [Dirithromycin], the inhibition at 110 µM under setting [1] is 3% and the inhibition at 110 µM under setting [2] was determined as 0%.

As to `CC(=O)O[C@@]12CO[C@@H]1C[C@H](O)[C@@]1(C)C(=O)[C@H](O)C3=C(C)[C@@H](OC(=O)[C@H](O)[C@@H](NC(=O)OC(C)(C)C)c4ccccc4)C[C@@](O)([C@@H](OC(=O)c4ccccc4)[C@H]21)C3(C)C` [Docetaxel], the inhibition at 110 µM under setting [1] was determined as 1% and the inhibition at 110 µM under setting [2] worked out at 15%.

In the case of `C[C@@H]1CCO[C@H]2Cn3cc(C(=O)NCc4ccc(F)cc4F)c(=O)c(O)c3C(=O)N12` [Dolutegravir], the inhibition at 110 µM is, setting by setting: under setting [1], 25%; under setting [2], 3%.

For `C=C1C[C@@]23CC[C@H]4[C@@](C)(CCC[C@@]4(C)C(=O)O[C@@H]4O[C@H](CO)[C@@H](O)[C@H](O)[C@H]4O)[C@@H]2CC[C@]1(O[C@@H]1O[C@H](CO)[C@@H](O)[C@H](O)[C@H]1O[C@@H]1O[C@@H](C)[C@H](O)[C@@H](O)[C@H]1O)C3` [Dulcoside A], the inhibition at 110 µM under setting [1] was 0% and the inhibition at 110 µM under setting [2] turned out to be 11%.

In the case of `N[C@@H]1CON=C1O` [D‐Cycloserine], the inhibition at 110 µM by setting is: under setting [1], 12%; under setting [2], 13%.

Take `O=c1c2ccccc2[se]n1-c1ccccc1` [Ebselen]: the inhibition at 110 µM is 13% under setting [1] and 12% under setting [2].

As for `C=C(CC[C@@H](C(=O)O)[C@H]1CC[C@@]2(C)C3=C(CC[C@]12C)[C@@]1(C)CC[C@H](O)C(C)(C)[C@@H]1CC3)C(C)C` [Eburicoic acid], the inhibition at 110 µM by setting is: under setting [1], 27%; under setting [2], 56%.

For `COc1cc(O)ccc1/C=C/C(=O)c1ccc(O)cc1` [Echinatin], the inhibition at 110 µM is 17% under setting [1] and 10% under setting [2].

In the case of `O=C1Nc2ccc(Cl)cc2[C@@](C#CC2CC2)(C(F)(F)F)O1` [Efavirenz], the inhibition at 110 µM worked out at 29% under setting [1] and 29% under setting [2].

In the case of `CC/C=C\C/C=C\C/C=C\C/C=C\C/C=C\CCCC(=O)O` [Eicosapentaenoic Acid], the inhibition at 110 µM reads like this: under setting [1], 0%; under setting [2], 4%.

As to `COc1cc2c(cc1Cc1cccc(Cl)c1F)c(=O)c(C(=O)O)cn2[C@H](CO)C(C)C` [Elvitegravir], the inhibition at 110 µM under setting [1] is 23% and the inhibition at 110 µM under setting [2] stood at 48%.

Turning to `Nc1nc(=O)n([C@@H]2CS[C@H](CO)O2)cc1F` [Emtricitabine], the inhibition at 110 µM under setting [1] came to 26% and the inhibition at 110 µM under setting [2] amounted to 32%.

In the case of `CC(=O)O[C@@H]1C[C@]23C4=CC[C@@]5(C)[C@H](C(=O)O)[C@@](C)([C@H](C)C(C)C)CC[C@]5(C)[C@H]4CC[C@H]2[C@@](C)(COC3O)[C@H]1O[C@@H]1O[C@H](CO)[C@@H](O)[C@H](O)[C@H]1O` (stereo partly drawn) [Enfumafungin], the inhibition at 110 µM reads like this: under setting [1], 0%; under setting [2], 60%.

As for `C=C(C)[C@@H]1CC[C@]2(C(=O)O)CC[C@]3(C)[C@H](CC[C@@H]4[C@@]5(C)CC[C@@H](O)C(C)(C)[C@@H]5CC[C@]43C)[C@@H]12` [Epibetulinic acid], the inhibition at 110 µM amounted to 14% under setting [1] and 17% under setting [2].

Take `CC(=O)O[C@@H]1C[C@H]2C(C)(C)C(=O)C=C[C@]2(C)[C@H]2CC[C@@]3(C)[C@H](c4ccoc4)C(=O)[C@H]4O[C@]43[C@@]21C` [Epoxyazadiradione]: the inhibition at 110 µM by setting is: under setting [1], 19%; under setting [2], 47%.

As for `C[C@@H]1O[C@@H](OC[C@H]2O[C@@H](Oc3cc(O)c4c(c3)O[C@H](c3ccc(O)c(O)c3)CC4=O)[C@H](O)[C@@H](O)[C@@H]2O)[C@H](O)[C@H](O)[C@H]1O` [Eriocitrin], the inhibition at 110 µM under setting [1] is 54% and the inhibition at 110 µM under setting [2] was determined as 16%.

Consider `O=C1C[C@@H](c2ccc(O)c(O)c2)Oc2cc(O)cc(O)c21` [Eriodictyol], for which the inhibition at 110 µM by setting is: under setting [1], 0%; under setting [2], 14%.

For the molecule `CC1(C)CC[C@]2(CO)CC[C@]3(C)C(=CC[C@@H]4[C@@]5(C)CC[C@H](O)C(C)(C)[C@@H]5CC[C@]43C)[C@@H]2C1` [Erythrodiol], the inhibition at 110 µM was found to be 11% under setting [1] and 68% under setting [2].

For the molecule `CCOC(=O)CCC(=O)O[C@H]1[C@H](O[C@@H]2[C@@H](C)[C@H](O[C@H]3C[C@@](C)(OC)[C@@H](O)[C@H](C)O3)[C@@H](C)C(=O)O[C@H](CC)[C@@](C)(O)[C@H](O)[C@@H](C)C(=O)[C@H](C)C[C@@]2(C)O)O[C@H](C)C[C@@H]1N(C)C` [Erythromycin Ethylsuccinate], the inhibition at 110 µM amounted to 24% under setting [1] and 7% under setting [2].

For `C/C=C(\C)C(=O)O[C@H]1[C@H](OC(C)=O)[C@]2(CO)[C@H](O)C[C@]3(C)C(=CC[C@@H]4[C@@]5(C)CC[C@H](O[C@@H]6O[C@H](C(=O)O)[C@@H](O[C@@H]7O[C@H](CO)[C@@H](O)[C@H](O)[C@H]7O)[C@H](O)[C@H]6O[C@@H]6O[C@H](CO)[C@@H](O)[C@H](O)[C@H]6O)[C@](C)(CO)[C@@H]5CC[C@]43C)[C@@H]2CC1(C)C` [Escin IA], the inhibition at 110 µM under setting [1] was determined as 0% and the inhibition at 110 µM under setting [2] was 0%.

In the case of `C/C=C(/C)C(=O)O[C@H]1[C@H](OC(C)=O)[C@]2(CO)[C@H](O)C[C@]3(C)C(=CC[C@@H]4[C@@]5(C)CC[C@H](O[C@@H]6O[C@H](C(=O)O)[C@@H](O[C@@H]7O[C@H](CO)[C@@H](O)[C@H](O)[C@H]7O)[C@H](O)[C@H]6O[C@@H]6O[C@H](CO)[C@@H](O)[C@H](O)[C@H]6O)[C@](C)(CO)[C@@H]5CC[C@]43C)[C@@H]2CC1(C)C` [Escin IB], the inhibition at 110 µM was 0% under setting [1] and 0% under setting [2].

As to `C[C@]12CC[C@@H]3c4ccc(O)cc4CC[C@H]3[C@@H]1CC[C@@H]2O` [Estradiol], the inhibition at 110 µM under setting [1] was found to be 1% and the inhibition at 110 µM under setting [2] amounted to 2%.

Consider `C[C@]12CC[C@@H]3c4ccc(O)cc4CC[C@H]3[C@@H]1C[C@@H](O)[C@@H]2O` [Estriol], for which the inhibition at 110 µM runs as follows: under setting [1], 2%; under setting [2], 10%.

On to `C[C@]12CC[C@@H]3c4ccc(O)cc4CC[C@H]3[C@@H]1CCC2=O` [Estrone], for which the inhibition at 110 µM turned out to be 32% under setting [1] and 0% under setting [2].

As to `C#C[C@]1(O)CC[C@H]2[C@@H]3CCc4cc(O)ccc4[C@H]3CC[C@@]21C` [Ethinylestradiol], the inhibition at 110 µM under setting [1] is 33% and the inhibition at 110 µM under setting [2] stood at 15%.

`CCc1cc(C(N)=S)ccn1` [Ethionamide]: the inhibition at 110 µM runs as follows: under setting [1], 64%; under setting [2], 12%.

In the case of `CCOC(=O)c1ccc(O)cc1` [Ethylparaben], the inhibition at 110 µM was 32% under setting [1] and 8% under setting [2].

With `COc1cc([C@@H]2c3cc4c(cc3[C@@H](O[C@@H]3O[C@@H]5CO[C@@H](C)O[C@H]5[C@H](O)[C@H]3O)[C@H]3COC(=O)[C@H]23)OCO4)cc(OC)c1O` [Etoposide], the inhibition at 110 µM was determined as 0% under setting [1] and 4% under setting [2].

Regarding `Cc1cc(C#N)cc(C)c1Oc1nc(Nc2ccc(C#N)cc2)nc(N)c1Br` [Etravirine], the inhibition at 110 µM is, setting by setting: under setting [1], 17%; under setting [2], 2%.

For the molecule `COc1ccc(-c2cc(=O)c3c(O)c(OC)c(OC)cc3o2)cc1O` [Eupatorin], the inhibition at 110 µM by setting is: under setting [1], 7%; under setting [2], 26%.

Regarding `CC(C)=CCC[C@@H](C)[C@@H]1CC[C@]2(C)C3=C(CC[C@@]12C)[C@@]1(C)CC[C@H](O)C(C)(C)[C@@H]1CC3` [Euphol], the inhibition at 110 µM is, setting by setting: under setting [1], 0%; under setting [2], 41%.
